# Values of other authors, collected in patent publication US7671089B2 (XenoPort, Inc., priority 2004, dated 2010).
# Key:
# [1] = following oral administration
# [2] = rats
SMILES,duration time [1],levels of levodopa [1],absorption following rectal administration [2]
CC(C)(C)C(=O)Oc1ccc(C[C@H](N)C(=O)O)cc1O [NB-355],prolonged,low,–
C[C@@](Cc1ccc(O)c(O)c1)(NN)C(=O)O [carbidopa],–,–,poor
